This note sets out measurements from the SangsterLogP compilation.

Structures are written as SMILES.

This data set in a line: method code SF, from DOI: 10.1021/jf00121a034.
In general, logP refers to a log measure of how a compound divides between an organic and an aqueous phase. Read a high logP as a more lipophilic compound. As for `CC(C)c1ccc(NC(=O)N(C)C)cc1`, the logP came out at 2.87.

In turn, `CON(C)C(=O)Nc1cccc(O)c1` yielded a logP of 0.82.

`CN(C)C(=O)Nc1cccc(OCCc2ccccc2)c1` returned a logP of 3.39.

As for `CON(C)C(=O)Nc1ccc(OCCC2CCCCC2)cc1`, the logP was found to be 4.46.

For the compound `CON(C)C(=O)Nc1ccc(N)cc1`, the logP is -0.16.

With `CON(C)C(=O)Nc1cccc(CO)c1`, the logP worked out at 0.62.

`CON(C)C(=O)Nc1ccc(OCCCCOc2ccccc2)cc1` had a log partition coefficient (logP) of 3.86.

Compound `CN(C)C(=O)Nc1ccc(C(=O)c2ccccc2)cc1` yielded a logP of 2.59.

Consider `CCCCc1cccc(NC(=O)N(C)C)c1`, for which the lipophilicity (logP) was found to be 3.23.

As for `CON(C)C(=O)Nc1cccc(C(F)(F)F)c1`, the lipophilicity (logP) came out at 2.64.

Consider `CON(C)C(=O)Nc1ccc(OCC(=O)C23CC4CC(CC(C4)C2)C3)cc1`, for which the logP was 3.53.

Regarding `CON(C)C(=O)Nc1ccc(CCCc2ccccc2)cc1`, the logP was determined as 4.67.

For `CON(C)C(=O)Nc1ccc(C(C)=O)cc1`, the logP amounted to 1.22.

The compound `CN(C)C(=O)Nc1ccc(C2CCCCC2)cc1` gave a log partition coefficient (logP) of 3.83.

In the case of `CON(C)C(=O)Nc1ccc(CCCc2ccc(-c3ccccc3)cc2)cc1`, the logP was 6.54.

`CC(=O)c1cccc(NC(=O)N(C)C)c1` came in with a logP of 0.95.

In turn, `CON(C)C(=O)Nc1ccc(OCC(=O)C23CC4CC(C2)C4C3)c(Cl)c1` (configuration not stated) registered a logP of 4.48.

Take `CON(C)C(=O)Nc1cccc(OCCCCOc2ccccc2)c1`: the lipophilicity (logP) worked out at 3.86.

With `CON(C)C(=O)Nc1ccc(CCCCc2ccccc2)cc1`, the logP worked out at 5.15.

Turning to `CON(C)C(=O)Nc1ccc(C2CCCCC2)cc1`, the logP was 4.08.

Regarding `CON(C)C(=O)Nc1ccc([N+](=O)[O-])cc1`, the logP came to 1.74.

Turning to `CON(C)C(=O)Nc1ccc(OCCc2cccc3ccccc23)cc1`, the logP is 4.81.

`CON(C)C(=O)Nc1cccc([N+](=O)[O-])c1` gave a lipophilicity (logP) of 1.64.

`CON(C)C(=O)Nc1ccc(OC(C)CC2CCCCC2)cc1` (configuration not stated) showed a logP of 4.51.

`CN(C)C(=O)Nc1cccc(O)c1`: the logP was determined as 0.51.

Regarding `CON(C)C(=O)Nc1ccc(C(C)C)cc1`, the logP was found to be 2.95.

Consider `CON(C)C(=O)Nc1ccc(OCCc2ccc(C)cc2)cc1`, for which the logP is 3.81.

In turn, `CCCCCCCCCCCCOc1ccc(NC(=O)N(C)C)cc1` showed a logP of 6.93.

`CON(C)C(=O)Nc1ccc(CCCc2ccc(Cl)cc2)cc1` gave a logP of 5.35.

For `CN(C)C(=O)Nc1cccc(N)c1`, the log partition coefficient (logP) was -0.1.

Take `CON(C)C(=O)Nc1ccc(F)cc1`: the logP was 1.46.

In the case of `CCOC(=O)c1ccc(NC(=O)N(C)OC)cc1`, the lipophilicity (logP) is 2.24.

For the compound `CON(C)C(=O)Nc1ccc(OCc2ccccc2)cc1`, the logP amounted to 3.11.

Turning to `CON(C)C(=O)Nc1ccc(NS(C)(=O)=O)cc1`, the logP was found to be 0.14.

On to `CON(C)C(=O)Nc1ccc(C(=O)c2ccccc2)cc1`, for which the logP came to 2.86.

With `CON(C)C(=O)Nc1cccc(C(C)(C)C)c1`, the lipophilicity (logP) came out at 3.21.

Compound `CCNc1ccc(NC(=O)N(C)OC)cc1` displayed a logP of 0.83.

The compound `CON(C)C(=O)Nc1ccc(C=C(C#N)C#N)cc1` displayed a lipophilicity (logP) of 2.19.

The compound `CON(C)C(=O)Nc1cccc(F)c1` came in with a log partition coefficient (logP) of 1.68.

Take `CN(C)C(=O)Nc1cccc([N+](=O)[O-])c1`: the log partition coefficient (logP) was found to be 1.46.

Consider `CON(C)C(=O)Nc1ccccc1`, for which the log partition coefficient (logP) amounted to 1.29.

`CON(C)C(=O)Nc1cccc(OCC(=O)C23CC4CC(CC(C4)C2)C3)c1` returned a logP of 3.79.
